Source: the supplement of paper PMC10307832

Legend:
Test in all cases: relative viability (nuclei count vs DMSO), 5 days (fraction); higher = more cells survive
FH535 + Dasatinib = compound: CC1=C(C=CC(=C1)[N+](=O)[O-])NS(=O)(=O)C2=C(C=CC(=C2)Cl)Cl [FH535] + Cc1nc(Nc2ncc(C(=O)Nc3c(C)cccc3Cl)s2)cc(N2CCN(CCO)CC2)n1 [Dasatinib] (partner 0.075 µM)
How it was run: (§1)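 Cells from lung cancer lines were seeded into 1536-well plates and, one day later, dosed by pin tool. Treatments were either a single drug or a fixed dose of an anchor drug with five library-drug doses (not always all listed) in √10 steps. After 5 days, nuclei were stained in a one-step fixation (final 0.05% Triton X-100, 1% formaldehyde, 1 ug/ml Hoechst) and counted on 4× images, and relative viability is the treated-to-vehicle nuclei ratio, as the median of duplicate plates.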

FH535 + Tozasertib = compound: CC1=C(C=CC(=C1)[N+](=O)[O-])NS(=O)(=O)C2=C(C=CC(=C2)Cl)Cl [FH535] + Cc1cc(Nc2cc(N3CCN(C)CC3)nc(Sc3ccc(NC(=O)C4CC4)cc3)n2)n[nH]1 [Tozasertib] (partner 0.1 µM)
How it was run: as §1

FH535 + Phenformin = compound: CC1=C(C=CC(=C1)[N+](=O)[O-])NS(=O)(=O)C2=C(C=CC(=C2)Cl)Cl [FH535] + N=C(N)NC(=N)NCCc1ccccc1 [Phenformin] (partner 250 µM)
How it was run: as §1

FH535 + OSI-027 = compound: CC1=C(C=CC(=C1)[N+](=O)[O-])NS(=O)(=O)C2=C(C=CC(=C2)Cl)Cl [FH535] + COc1cccc2cc(-c3nc([C@H]4CC[C@H](C(=O)O)CC4)n4ncnc(N)c34)[nH]c12 [OSI-027] (partner 0.5 µM)
How it was run: as §1

FH535 + Foretinib = compound: CC1=C(C=CC(=C1)[N+](=O)[O-])NS(=O)(=O)C2=C(C=CC(=C2)Cl)Cl [FH535] + COc1cc2c(Oc3ccc(NC(=O)C4(C(=O)Nc5ccc(F)cc5)CC4)cc3F)ccnc2cc1OCCCN1CCOCC1 [Foretinib] (partner 0.25 µM)
How it was run: as §1

FH535 + Luminespib = compound: CC1=C(C=CC(=C1)[N+](=O)[O-])NS(=O)(=O)C2=C(C=CC(=C2)Cl)Cl [FH535] + CCNC(=O)c1noc(-c2cc(C(C)C)c(O)cc2O)c1-c1ccc(CN2CCOCC2)cc1 [Luminespib] (partner 0.01 µM)
How it was run: as §1

FH535 = compound: CC1=C(C=CC(=C1)[N+](=O)[O-])NS(=O)(=O)C2=C(C=CC(=C2)Cl)Cl [FH535]
How it was run: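 Following overnight incubation at 37 °C, lung cancer cell lines in 1536-well plates were pinned with five library-drug doses (not always all listed) in √10 steps on vehicle-anchored plates. The cells then spent 5 days without medium change before a combined fix, permeabilisation and Hoechst stain, 4× imaging and MetaXpress nuclear counts. Viability is the treated-to-vehicle ratio of nuclei, taken as the median across plates. Only plates with control CV below 25% and at least one doubling passed.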

FH535 + AZD7762 = compound: CC1=C(C=CC(=C1)[N+](=O)[O-])NS(=O)(=O)C2=C(C=CC(=C2)Cl)Cl [FH535] + NC(=O)Nc1cc(-c2cccc(F)c2)sc1C(=O)N[C@H]1CCCNC1 [AZD7762] (partner 0.2 µM)
How it was run: as §1

FH535 + Pemetrexed = compound: CC1=C(C=CC(=C1)[N+](=O)[O-])NS(=O)(=O)C2=C(C=CC(=C2)Cl)Cl [FH535] + Nc1nc2[nH]cc(CCc3ccc(C(=O)N[C@@H](CCC(=O)O)C(=O)O)cc3)c2c(=O)[nH]1 [Pemetrexed] (partner 0.2 µM)
How it was run: as §1

FH535 + Palbociclib = compound: CC1=C(C=CC(=C1)[N+](=O)[O-])NS(=O)(=O)C2=C(C=CC(=C2)Cl)Cl [FH535] + CC(=O)c1c(C)c2cnc(Nc3ccc(N4CCNCC4)cn3)nc2n(C2CCCC2)c1=O [Palbociclib] (partner 0.5 µM)
How it was run: as §1

FH535 + Trametinib = compound: CC1=C(C=CC(=C1)[N+](=O)[O-])NS(=O)(=O)C2=C(C=CC(=C2)Cl)Cl [FH535] + CC(=O)Nc1cccc(-n2c(=O)n(C3CC3)c(=O)c3c(Nc4ccc(I)cc4F)n(C)c(=O)c(C)c32)c1 [Trametinib] (partner 0.02 µM)
How it was run: as §1

FH535 + Olaparib = compound: CC1=C(C=CC(=C1)[N+](=O)[O-])NS(=O)(=O)C2=C(C=CC(=C2)Cl)Cl [FH535] + O=C(c1cc(Cc2n[nH]c(=O)c3ccccc23)ccc1F)N1CCN(C(=O)C2CC2)CC1 [Olaparib] (partner 8 µM)
How it was run: as §1

FH535 + Decitabine = compound: CC1=C(C=CC(=C1)[N+](=O)[O-])NS(=O)(=O)C2=C(C=CC(=C2)Cl)Cl [FH535] + Nc1ncn([C@H]2C[C@H](O)[C@@H](CO)O2)c(=O)n1 [Decitabine] (partner 2 µM)
How it was run: as §1

FH535 + Vorinostat = compound: CC1=C(C=CC(=C1)[N+](=O)[O-])NS(=O)(=O)C2=C(C=CC(=C2)Cl)Cl [FH535] + O=C(CCCCCCC(=O)Nc1ccccc1)NO [Vorinostat] (partner 1 µM)
How it was run: as §1

NCI-H1623
relative viability (FH535 + Dasatinib; first compound 0.04 µM): 0.515 | relative viability (FH535 + Dasatinib; first compound 0.1265 µM): 0.468 | relative viability (FH535 + Dasatinib; first compound 0.4 µM): 0.508 | relative viability (FH535 + Dasatinib; first compound 1.265 µM): 0.478 | relative viability (FH535 + Tozasertib; first compound 0.04 µM): 0.391 | relative viability (FH535 + Tozasertib; first compound 0.1265 µM): 0.426 | relative viability (FH535 + Tozasertib; first compound 0.4 µM): 0.426 | relative viability (FH535 + Tozasertib; first compound 1.265 µM): 0.45 | relative viability (FH535 + Phenformin; first compound 0.04 µM): 0.551 | relative viability (FH535 + Phenformin; first compound 0.1265 µM): 0.523 | relative viability (FH535 + Phenformin; first compound 0.4 µM): 0.495 | relative viability (FH535 + Phenformin; first compound 1.265 µM): 0.468 | relative viability (FH535 + OSI-027; first compound 0.04 µM): 0.424 | relative viability (FH535 + OSI-027; first compound 0.1265 µM): 0.525 | relative viability (FH535 + OSI-027; first compound 0.4 µM): 0.451 | relative viability (FH535 + OSI-027; first compound 1.265 µM): 0.413 | relative viability (FH535 + Foretinib; first compound 0.04 µM): 0.816 | relative viability (FH535 + Foretinib; first compound 0.1265 µM): 0.855 | relative viability (FH535 + Foretinib; first compound 0.4 µM): 0.823 | relative viability (FH535 + Foretinib; first compound 1.265 µM): 0.777 | relative viability (FH535 + Luminespib; first compound 0.04 µM): 0.609 | relative viability (FH535 + Luminespib; first compound 0.1265 µM): 0.574 | relative viability (FH535 + Luminespib; first compound 0.4 µM): 0.513 | relative viability (FH535 + Luminespib; first compound 1.265 µM): 0.509 | relative viability (FH535; 0.04 µM): 1.02 | relative viability (FH535; 0.1265 µM): 0.948 | relative viability (FH535; 0.4 µM): 0.991 | relative viability (FH535; 1.265 µM): 0.912

NCI-H1648
relative viability (FH535 + AZD7762; first compound 0.1265 µM): 0.654 | relative viability (FH535 + AZD7762; first compound 0.4 µM): 0.612 | relative viability (FH535 + AZD7762; first compound 1.265 µM): 0.625 | relative viability (FH535 + Tozasertib; first compound 0.04 µM): 0.397 | relative viability (FH535 + Tozasertib; first compound 0.4 µM): 0.603 | relative viability (FH535 + Tozasertib; first compound 1.265 µM): 0.281 | relative viability (FH535 + Pemetrexed; first compound 0.1265 µM): 0.655 | relative viability (FH535 + Pemetrexed; first compound 0.4 µM): 0.532 | relative viability (FH535 + Pemetrexed; first compound 1.265 µM): 0.635 | relative viability (FH535 + OSI-027; first compound 0.04 µM): 0.243 | relative viability (FH535 + OSI-027; first compound 0.4 µM): 0.254 | relative viability (FH535 + OSI-027; first compound 1.265 µM): 0.243 | relative viability (FH535 + Palbociclib; first compound 0.1265 µM): 0.219 | relative viability (FH535 + Palbociclib; first compound 0.4 µM): 0.273 | relative viability (FH535 + Palbociclib; first compound 1.265 µM): 0.225 | relative viability (FH535 + Trametinib; first compound 0.1265 µM): 0.441 | relative viability (FH535 + Trametinib; first compound 0.4 µM): 0.544 | relative viability (FH535 + Trametinib; first compound 1.265 µM): 0.352 | relative viability (FH535 + Olaparib; first compound 0.1265 µM): 0.888 | relative viability (FH535 + Olaparib; first compound 0.4 µM): 1.08 | relative viability (FH535 + Olaparib; first compound 1.265 µM): 0.383 | relative viability (FH535 + Decitabine; first compound 0.1265 µM): 0.585 | relative viability (FH535 + Decitabine; first compound 0.4 µM): 0.478 | relative viability (FH535 + Decitabine; first compound 1.265 µM): 0.398 | relative viability (FH535 + Vorinostat; first compound 0.1265 µM): 0.595 | relative viability (FH535 + Vorinostat; first compound 0.4 µM): 0.709 | relative viability (FH535 + Vorinostat; first compound 1.265 µM): 0.473 | relative viability (FH535; 0.04 µM): 0.645 | relative viability (FH535; 0.1265 µM): 0.828 | relative viability (FH535; 0.4 µM): 0.837 | relative viability (FH535; 1.265 µM): 0.641
